Experimental data reported in EPA's ToxRefDB 2.

What was measured:
dog [1] = conditions: Subchronic oral toxicity in nonrodent, beagle, Capsule, dose end: 13 week, group: systemic
mouse [2] = conditions: Carcinogenicity, cd1, Oral, Feed, dose end: 18 month, group: systemic
rat [3] = conditions: Subchronic oral toxicity in rodents, fischer, Feed, dose end: 13 week, group: systemic, systemic / organ weight / adrenal gland / nos + systemic / organ weight / kidney / nos + systemic / organ weight / liver / nos + systemic / …
mouse [4] = conditions: Subchronic oral toxicity in rodents, cd1, Feed, dose end: 13 week, group: systemic
rat [5] = conditions: Multigenerational reproductive toxicity study, Other, Oral, Feed, dose end: 2 generation
dog [6] = conditions: Chronic toxicity, beagle, Oral, Capsule, dose end: 52 week, group: systemic
rat [7] = conditions: Prenatal developmental toxicity study, sprague dawley, Oral, Gavage/Intubation, dose end: 16 GD
dog [8] = conditions: Chronic toxicity; beagle; Oral; Feed; dose end: 12 month; group: systemic; systemic / clinical chemistry / sodium / sodium + systemic / in life observation / body weight / body weight + systemic / in life …
rat [9] = conditions: Combined chronic toxicity/carcinogenicity; sprague dawley; Oral; Feed; dose end: 24 month; group: systemic; systemic / clinical chemistry / sodium / sodium
rabbit = conditions: Prenatal developmental toxicity study, new zealand white, Oral, Gavage/Intubation, dose end: 19 GD, group: maternal
mouse [10] = conditions: Subchronic oral toxicity in rodents, b6c3f1, Water, dose end: 30 day, group: systemic
[11] = systemic / clinical chemistry / alkaline phosphatase (alp/alk) / alkaline phosphatase (alp/alk) + systemic / pathology gross / liver / …
[12] = systemic / organ weight / prostate / relative to body weight
[13] = systemic / organ weight / liver / relative to body weight
[14] = systemic / organ weight / liver / relative to body weight + systemic / organ weight / liver / absolute
[15] = systemic / pathology microscopic / liver / hypertrophy
[16] = systemic / pathology microscopic / liver / hypertrophy + systemic / clinical chemistry / alanine aminotransferase (alt/sgpt) / alanine …
[17] = group: offspring, systemic / in life observation / body weight / offspring (pup) weight + systemic / pathology gross / liver / discolored + systemic / …
[18] = group: parental, systemic / organ weight / liver / relative to body weight
[19] = group: parental, systemic / organ weight / liver / relative to body weight + systemic / in life observation / body weight / body weight + systemic / in life …
[20] = systemic / pathology microscopic / liver / pigmentation + systemic / clinical chemistry / alkaline phosphatase (alp/alk) / alkaline …
[21] = group: developmental, developmental / developmental malformation / bone / incomplete ossification + systemic / in life observation / body weight / fetal weight + …
[22] = group: maternal, systemic / in life observation / body weight / body weight + systemic / in life observation / body weight / body weight gain + systemic / in…
[23] = systemic / organ weight / liver / relative to body weight + reproductive / reproductive performance / aborted / aborted + reproductive / …
[24] = systemic / clinical chemistry / triglycerides / triglycerides
[25] = systemic / organ weight / kidney / absolute + systemic / organ weight / kidney / relative to body weight + systemic / organ weight / liver…

Compound: CSC(=O)c1c(C(F)F)nc(C(F)(F)F)c(C(=O)SC)c1CC(C)C [Dithiopyr]
- LOAEL (dog [1]; [11]): 10 mg/kg/day
- NOAEL (dog [1]; [11]): 1 mg/kg/day
- LEL (dog [1]; [12]): 1 mg/kg/day
- NEL (dog [1]; [12]): < 1 mg/kg/day
- LEL (mouse [2]; [13]): 3.27 mg/kg/day
- LOAEL (mouse [2]; [13]): 3.27 mg/kg/day
- NEL (mouse [2]; [14]): 0.31 mg/kg/day
- NOAEL (mouse [2]; [14]): 0.31 mg/kg/day
- LEL (rat [3]): 6.62 mg/kg/day
- LOAEL (rat [3]): 6.62 mg/kg/day
- NEL (rat [3]): 0.662 mg/kg/day
- NOAEL (rat [3]): 0.662 mg/kg/day
- LEL (mouse [4]; [15]): 11.8 mg/kg/day
- LOAEL (mouse [4]; [15]): 11.8 mg/kg/day
- NEL (mouse [4]; [16]): 1.16 mg/kg/day
- NOAEL (mouse [4]; [16]): 1.16 mg/kg/day
- LEL (rat [5]; [17]): 19.9 mg/kg/day
- LOAEL (rat [5]; [17]): > 218 mg/kg/day
- NEL (rat [5]; [17]): 2 mg/kg/day
- NOAEL (rat [5]; [17]): ≥ 218 mg/kg/day
- LEL (rat [5]; [18]): 16.4 mg/kg/day
- LOAEL (rat [5]; [18]): 16.4 mg/kg/day
- NEL (rat [5]; [19]): 1.7 mg/kg/day
- NOAEL (rat [5]; [19]): 1.7 mg/kg/day
- LOAEL (dog [6]; systemic / pathology microscopic / liver / pigmentation): 5 mg/kg/day
- LEL (dog [6]; [20]): 5 mg/kg/day
- NEL (dog [6]; [20]): 0.5 mg/kg/day
- NOAEL (dog [6]; [20]): 0.5 mg/kg/day

Compound: CCOc1nc(NC)nc(NC(=O)NS(=O)(=O)c2ccccc2C(=O)OC)n1 [Ethametsulfuron-methyl]
- LEL (rat [7]; [21]): 4000 mg/kg/day
- LOAEL (rat [7]; [21]): 4000 mg/kg/day
- NEL (rat [7]; [21]): 1000 mg/kg/day
- NOAEL (rat [7]; [21]): 1000 mg/kg/day
- LEL (rat [7]; [22]): 4000 mg/kg/day
- LOAEL (rat [7]; [22]): 4000 mg/kg/day
- NEL (rat [7]; [22]): 1000 mg/kg/day
- NOAEL (rat [7]; [22]): 1000 mg/kg/day
- LEL (dog [8]): 478 mg/kg/day
- LOAEL (dog [8]): 478 mg/kg/day
- NEL (dog [8]): 87.3 mg/kg/day
- NOAEL (dog [8]): 87.3 mg/kg/day
- LEL (rat [9]): 210 mg/kg/day
- LOAEL (rat [9]): > 210 mg/kg/day
- NEL (rat [9]): 21 mg/kg/day
- NOAEL (rat [9]): ≥ 210 mg/kg/day
- LEL (rabbit; [13]): 1000 mg/kg/day
- LOAEL (rabbit; [13]): 1000 mg/kg/day
- NEL (rabbit; [23]): 250 mg/kg/day
- NOAEL (rabbit; [23]): 250 mg/kg/day

Compound: O=[As]([O-])([O-])[O-].[Na+].[Na+].[Na+] [Trisodium arsenate]
- LEL (mouse [10]; [24]): 0.00625 mg/kg/day
- NEL (mouse [10]; [24]): < 0.00625 mg/kg/day
- LOAEL (mouse [10]; [25]): 0.625 mg/kg/day
- NOAEL (mouse [10]; [25]): 0.00625 mg/kg/day
